Data reported in ChEMBL document CHEMBL1687697 (ACS Med Chem Lett, 2010).
Calls of active or inactive are those of the source. The rule behind the calls is not given here.

Experiments:
DU-145 [1] = test: Induction of apoptosis in human DU145 cells assessed as viable cells at 10 uM after 72 hrs by AnnexinV-propidium iodide based FACS flow cytometry; assay type: functional; conditions: DU-145, 72 h, read-out: Activity
DU-145 [2] = test: Effect on Src protein level in human DU145 cells at 0.1 to 2 uM after 24 hrs by Western blot analysis; assay type: functional, cell-based
DU-145 [3] = test: Effect on phosphorylated JAK1 protein level in human DU145 cells at 0.1 to 2 uM after 24 hrs by Western blot analysis; assay type: functional, cell-based
[4] = target: Vascular endothelial growth factor receptor 2 (Homo sapiens, UniProt P35968); test: Inhibition of VEGFR2 after 60 mins by radiometric assay
DU-145 [5] = test: Cell cycle arrest in human DU145 cells assessed as accumulation in G2/M phase at 0.2 uM after 24 hrs by FACS flow cytometry; assay type: functional
[6] = target: Signal transducer and activator of transcription 3 (Homo sapiens) (UniProt P40763); test: Inhibition of STAT3 phosphorylation at Tyr705 in human DU145 cells after 24 hrs by Western blot analysis; assay type: cell-based; conditions: DU-145
Signal transducer and activator of transcription 3 (Homo sapiens), sequence (P40763 whole entry): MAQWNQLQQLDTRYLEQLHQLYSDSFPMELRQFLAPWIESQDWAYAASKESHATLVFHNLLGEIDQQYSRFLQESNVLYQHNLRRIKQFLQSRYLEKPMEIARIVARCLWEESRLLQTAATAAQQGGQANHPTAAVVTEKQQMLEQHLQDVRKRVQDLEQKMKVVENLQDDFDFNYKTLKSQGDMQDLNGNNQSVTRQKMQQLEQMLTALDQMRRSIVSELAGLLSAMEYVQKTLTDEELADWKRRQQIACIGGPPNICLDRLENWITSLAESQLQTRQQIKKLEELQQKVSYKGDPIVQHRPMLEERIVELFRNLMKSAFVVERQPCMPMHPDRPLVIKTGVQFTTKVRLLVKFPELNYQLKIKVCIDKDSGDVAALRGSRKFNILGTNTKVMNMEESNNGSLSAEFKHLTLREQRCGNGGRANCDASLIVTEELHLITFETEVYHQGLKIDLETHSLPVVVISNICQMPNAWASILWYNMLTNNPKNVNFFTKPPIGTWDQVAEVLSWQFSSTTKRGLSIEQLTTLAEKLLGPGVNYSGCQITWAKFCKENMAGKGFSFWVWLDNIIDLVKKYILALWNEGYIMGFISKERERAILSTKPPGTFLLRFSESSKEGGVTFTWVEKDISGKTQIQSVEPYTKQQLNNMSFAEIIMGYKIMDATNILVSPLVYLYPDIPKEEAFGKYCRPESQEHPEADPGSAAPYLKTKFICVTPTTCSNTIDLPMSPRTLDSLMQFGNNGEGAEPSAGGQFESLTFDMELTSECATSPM

[7] = target: Tyrosine-protein kinase ABL1 (Homo sapiens, UniProt P00519); test: Inhibition of Abl1 after 60 mins by radiometric assay
Tyrosine-protein kinase ABL1, sequence (P00519 whole entry): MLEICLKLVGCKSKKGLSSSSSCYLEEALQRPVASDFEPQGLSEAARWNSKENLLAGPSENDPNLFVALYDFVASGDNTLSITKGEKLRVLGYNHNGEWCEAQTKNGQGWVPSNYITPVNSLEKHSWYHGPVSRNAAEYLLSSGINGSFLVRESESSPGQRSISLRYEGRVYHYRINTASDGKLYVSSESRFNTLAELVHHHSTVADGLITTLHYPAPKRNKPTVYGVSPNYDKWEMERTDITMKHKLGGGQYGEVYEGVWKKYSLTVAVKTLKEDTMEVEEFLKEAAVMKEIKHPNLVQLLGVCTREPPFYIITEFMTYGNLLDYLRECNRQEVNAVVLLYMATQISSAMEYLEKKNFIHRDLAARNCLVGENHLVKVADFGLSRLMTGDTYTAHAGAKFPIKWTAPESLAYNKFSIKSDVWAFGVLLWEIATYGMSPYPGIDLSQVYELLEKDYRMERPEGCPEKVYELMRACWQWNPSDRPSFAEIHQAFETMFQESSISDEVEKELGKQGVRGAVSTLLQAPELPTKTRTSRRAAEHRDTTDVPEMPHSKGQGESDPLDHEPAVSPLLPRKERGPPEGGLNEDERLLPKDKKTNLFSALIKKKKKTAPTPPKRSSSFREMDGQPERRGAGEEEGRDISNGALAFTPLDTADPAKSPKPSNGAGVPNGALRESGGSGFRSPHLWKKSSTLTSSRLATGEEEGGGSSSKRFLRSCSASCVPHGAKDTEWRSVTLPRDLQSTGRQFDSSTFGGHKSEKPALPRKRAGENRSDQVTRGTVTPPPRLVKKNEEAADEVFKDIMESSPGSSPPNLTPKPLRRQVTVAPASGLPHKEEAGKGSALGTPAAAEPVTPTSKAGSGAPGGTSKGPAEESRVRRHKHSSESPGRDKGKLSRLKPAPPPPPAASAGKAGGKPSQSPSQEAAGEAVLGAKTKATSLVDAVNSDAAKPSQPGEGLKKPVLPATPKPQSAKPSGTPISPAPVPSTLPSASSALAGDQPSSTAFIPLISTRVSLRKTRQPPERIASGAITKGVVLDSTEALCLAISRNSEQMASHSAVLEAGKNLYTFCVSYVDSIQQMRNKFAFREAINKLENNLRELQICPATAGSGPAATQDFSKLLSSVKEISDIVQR

[8] = target: Receptor-type tyrosine-protein kinase FLT3 (Homo sapiens, UniProt P36888); test: Inhibition of Flt3 after 60 mins by radiometric assay
Receptor-type tyrosine-protein kinase FLT3, sequence (P36888 whole entry): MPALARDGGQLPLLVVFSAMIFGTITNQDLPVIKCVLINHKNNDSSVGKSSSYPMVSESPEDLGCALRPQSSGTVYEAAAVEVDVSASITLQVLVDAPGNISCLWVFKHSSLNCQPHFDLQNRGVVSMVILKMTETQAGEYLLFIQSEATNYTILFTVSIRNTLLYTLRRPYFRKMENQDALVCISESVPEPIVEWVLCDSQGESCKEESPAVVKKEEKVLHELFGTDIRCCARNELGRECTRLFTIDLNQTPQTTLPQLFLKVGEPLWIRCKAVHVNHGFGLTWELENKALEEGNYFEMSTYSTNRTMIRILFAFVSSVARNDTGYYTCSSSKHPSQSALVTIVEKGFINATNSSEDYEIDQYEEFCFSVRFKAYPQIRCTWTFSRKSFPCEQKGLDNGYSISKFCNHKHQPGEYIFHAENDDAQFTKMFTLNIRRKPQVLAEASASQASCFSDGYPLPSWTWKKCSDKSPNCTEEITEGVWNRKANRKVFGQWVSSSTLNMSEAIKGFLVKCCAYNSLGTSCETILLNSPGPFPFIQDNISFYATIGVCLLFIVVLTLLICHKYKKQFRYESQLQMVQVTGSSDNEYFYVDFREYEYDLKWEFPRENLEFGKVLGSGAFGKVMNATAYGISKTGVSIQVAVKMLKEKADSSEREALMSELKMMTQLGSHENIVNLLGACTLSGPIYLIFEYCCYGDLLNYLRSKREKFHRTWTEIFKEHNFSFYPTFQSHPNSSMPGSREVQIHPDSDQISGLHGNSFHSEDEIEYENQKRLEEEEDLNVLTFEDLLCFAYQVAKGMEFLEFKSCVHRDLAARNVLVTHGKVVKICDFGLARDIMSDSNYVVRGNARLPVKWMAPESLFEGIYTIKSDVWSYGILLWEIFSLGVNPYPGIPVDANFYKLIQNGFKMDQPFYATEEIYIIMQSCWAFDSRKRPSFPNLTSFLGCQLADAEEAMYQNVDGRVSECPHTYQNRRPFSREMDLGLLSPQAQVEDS

[9] = target: RAC-alpha serine/threonine-protein kinase (Homo sapiens, UniProt P31749); test: Inhibition of Akt1 after 60 mins by radiometric assay
[10] = target: Signal transducer and activator of transcription 3 (Homo sapiens) (UniProt P40763); test: Inhibition of STAT3 nuclear translocation in EGF stimulated human DU145 cells at 1 uM administered before 100 ng/ml EGF stimulation measured after 2 hrs by confocal laser microscopy; assay type: cell-based; conditions: DU-145
DU-145 [11] = test: Antiproliferative activity against human DU145 cells after 72 hrs by MTT assay; assay type: functional, cell-based; conditions: DU-145, 72 h
DU-145 [12] = test: Effect on Tyr416 phosphorylated-Src protein level in human DU145 cells at 0.1 to 2 uM after 24 hrs by Western blot analysis; assay type: functional, cell-based
[13] = target: Signal transducer and activator of transcription 1-alpha/beta (Homo sapiens) (UniProt P42224); test: Inhibition of STAT1 phosphorylation at Tyr701 after 2 hrs by Western blot analysis
[14] = target: Glycogen synthase kinase-3 beta (Homo sapiens, UniProt P49841); test: Inhibition of GSK3-beta after 60 mins by radiometric assay
DU-145 [15] = test: Induction of apoptosis in human DU145 cells assessed as necrotic cells at 5 uM after 72 hrs by AnnexinV-propidium iodide based FACS flow cytometry; assay type: functional
DU-145 [16] = test: Induction of apoptosis in human DU145 cells assessed as early apoptotic cells at 10 uM after 72 hrs by AnnexinV-propidium iodide based FACS flow cytometry; assay type: functional
Angiopoietin-1 receptor = Angiopoietin-1 receptor (Homo sapiens, UniProt Q02763); test: Inhibition of TIE2 after 60 mins by radiometric assay
Angiopoietin-1 receptor, sequence (Q02763 whole entry): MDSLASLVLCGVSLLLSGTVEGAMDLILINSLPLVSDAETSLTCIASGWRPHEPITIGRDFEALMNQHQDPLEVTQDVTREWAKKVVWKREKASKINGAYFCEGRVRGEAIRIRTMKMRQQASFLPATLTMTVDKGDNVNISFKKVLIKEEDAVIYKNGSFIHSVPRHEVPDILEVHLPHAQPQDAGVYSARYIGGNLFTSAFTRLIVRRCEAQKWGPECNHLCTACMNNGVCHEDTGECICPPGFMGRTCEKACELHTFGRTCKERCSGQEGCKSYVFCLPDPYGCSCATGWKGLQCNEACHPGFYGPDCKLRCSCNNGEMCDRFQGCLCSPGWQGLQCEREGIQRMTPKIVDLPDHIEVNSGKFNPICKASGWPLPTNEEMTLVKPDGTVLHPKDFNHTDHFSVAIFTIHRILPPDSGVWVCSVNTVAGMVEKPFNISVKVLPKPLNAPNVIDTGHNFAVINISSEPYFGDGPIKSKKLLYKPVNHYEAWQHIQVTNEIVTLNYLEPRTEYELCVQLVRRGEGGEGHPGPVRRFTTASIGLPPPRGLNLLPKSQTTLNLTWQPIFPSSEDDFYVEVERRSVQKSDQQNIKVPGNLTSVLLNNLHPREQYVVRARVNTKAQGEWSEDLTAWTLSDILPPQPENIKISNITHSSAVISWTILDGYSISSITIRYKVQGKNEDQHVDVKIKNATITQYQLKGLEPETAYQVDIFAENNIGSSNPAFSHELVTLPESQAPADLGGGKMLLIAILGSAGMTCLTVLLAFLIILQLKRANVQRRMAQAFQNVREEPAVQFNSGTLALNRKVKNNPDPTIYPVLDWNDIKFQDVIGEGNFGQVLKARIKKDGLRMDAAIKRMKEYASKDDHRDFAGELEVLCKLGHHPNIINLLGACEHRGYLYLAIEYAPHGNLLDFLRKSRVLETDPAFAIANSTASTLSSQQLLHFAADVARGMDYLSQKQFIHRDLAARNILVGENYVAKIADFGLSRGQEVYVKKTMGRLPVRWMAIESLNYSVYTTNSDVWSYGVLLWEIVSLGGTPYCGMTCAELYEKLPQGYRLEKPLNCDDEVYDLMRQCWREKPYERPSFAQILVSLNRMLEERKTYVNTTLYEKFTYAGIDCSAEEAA

DU-145 [17] = test: Effect on JAK2 protein level in human DU145 cells at 0.1 to 2 uM after 2 hrs by Western blot analysis; assay type: functional, cell-based
DU-145 [18] = test: Cell cycle arrest in human DU145 cells assessed as accumulation in G2/M phase at 0.5 uM after 24 hrs by FACS flow cytometry; assay type: functional
DU-145 [19] = test: Induction of apoptosis in human DU145 cells assessed as viable cells at 1 uM after 72 hrs by AnnexinV-propidium iodide based FACS flow cytometry; assay type: functional; conditions: DU-145, 72 h, read-out: Activity
DU-145 [20] = test: Effect on phosphorylated JAK1 protein level in human DU145 cells at 0.1 to 2 uM after 2 hrs by Western blot analysis; assay type: functional, cell-based
[21] = target: Signal transducer and activator of transcription 3 (Homo sapiens) (UniProt P40763); test: Inhibition of STAT3 phosphorylation Ser727 in human DU145 cells after 24 hrs by Western blot analysis; assay type: cell-based; conditions: DU-145
DU-145 [22] = test: Decrease in Bcl-Xl protein level in human DU145 cells at 0.1 to 2 uM after 2 hrs by Western blot analysis; assay type: functional, cell-based
DU-145 [23] = test: Effect on JAK1 protein level in human DU145 cells at 0.1 to 2 uM after 24 hrs by Western blot analysis; assay type: functional, cell-based
DU-145 [24] = test: Effect on Tyr527 phosphorylated-Src protein level in human DU145 cells at 0.1 to 2 uM after 24 hrs by Western blot analysis; assay type: functional, cell-based
DU-145 [25] = test: Cell cycle arrest in human DU145 cells assessed as accumulation in G0/G1 phase at 0.5 uM after 24 hrs by FACS flow cytometry; assay type: functional
DU-145 [26] = test: Cell cycle arrest in human DU145 cells assessed as accumulation in G2/M phase at 1 uM after 24 hrs by FACS flow cytometry; assay type: functional
[27] = target: Signal transducer and activator of transcription 3 (Homo sapiens) (UniProt P40763); test: Inhibition of STAT3 in human HeLa cells at 5 uM after 24 hrs by luciferase reporter gene assay; assay type: cell-based
HeLa = test: Antiproliferative activity against human HeLa cells after 72 hrs by MTT assay; assay type: functional, cell-based
[28] = target: Mast/stem cell growth factor receptor Kit (Homo sapiens, UniProt P10721); test: Inhibition of KIT after 60 mins by radiometric assay
Mast/stem cell growth factor receptor Kit, sequence (P10721 whole entry): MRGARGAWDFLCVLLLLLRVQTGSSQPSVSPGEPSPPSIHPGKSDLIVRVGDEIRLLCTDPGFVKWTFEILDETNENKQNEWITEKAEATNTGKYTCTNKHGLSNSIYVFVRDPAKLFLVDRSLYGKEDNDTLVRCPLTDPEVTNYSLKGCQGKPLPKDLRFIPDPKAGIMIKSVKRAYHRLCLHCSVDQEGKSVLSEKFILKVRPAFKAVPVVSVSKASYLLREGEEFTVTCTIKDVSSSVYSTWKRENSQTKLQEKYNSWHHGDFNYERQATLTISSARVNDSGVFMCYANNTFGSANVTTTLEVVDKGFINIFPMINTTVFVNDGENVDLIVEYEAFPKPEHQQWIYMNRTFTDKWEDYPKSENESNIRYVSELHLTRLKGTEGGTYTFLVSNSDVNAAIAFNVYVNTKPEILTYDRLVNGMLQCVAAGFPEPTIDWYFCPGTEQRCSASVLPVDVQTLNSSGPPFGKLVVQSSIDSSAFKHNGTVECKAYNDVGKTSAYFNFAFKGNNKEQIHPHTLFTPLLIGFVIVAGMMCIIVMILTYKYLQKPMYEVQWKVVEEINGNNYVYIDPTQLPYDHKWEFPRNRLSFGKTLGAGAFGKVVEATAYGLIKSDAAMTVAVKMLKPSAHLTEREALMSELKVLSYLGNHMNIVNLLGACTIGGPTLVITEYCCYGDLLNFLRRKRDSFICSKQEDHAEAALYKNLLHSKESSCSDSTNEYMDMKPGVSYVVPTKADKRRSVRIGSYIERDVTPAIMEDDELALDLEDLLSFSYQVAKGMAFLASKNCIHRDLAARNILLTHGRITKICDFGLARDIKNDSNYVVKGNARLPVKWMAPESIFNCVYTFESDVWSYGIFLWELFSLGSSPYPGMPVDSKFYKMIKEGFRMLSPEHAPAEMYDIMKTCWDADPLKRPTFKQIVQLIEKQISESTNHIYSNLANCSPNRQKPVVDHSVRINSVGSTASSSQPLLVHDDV

DU-145 [29] = test: Induction of apoptosis in human DU145 cells assessed as necrotic cells at 1 uM after 72 hrs by AnnexinV-propidium iodide based FACS flow cytometry; assay type: functional
DU-145 [30] = test: Induction of apoptosis in human DU145 cells assessed as late apoptotic cells at 10 uM after 72 hrs by AnnexinV-propidium iodide based FACS flow cytometry; assay type: functional
DU-145 [31] = test: Induction of apoptosis in human DU145 cells assessed as early apoptotic cells at 1 uM after 72 hrs by AnnexinV-propidium iodide based FACS flow cytometry; assay type: functional
DU-145 [32] = test: Cell cycle arrest in human DU145 cells assessed as accumulation in G0/G1 phase at 1 uM after 24 hrs by FACS flow cytometry; assay type: functional
DU-145 [33] = test: Growth inhibition of human DU145 cells assessed as inhibition of colony formation after 11 to 12 days by crystal violet staining based microscopic analysis; assay type: functional, cell-based
DU-145 [34] = test: Cell cycle arrest in human DU145 cells assessed as accumulation in S phase at 0.2 uM after 24 hrs by FACS flow cytometry; assay type: functional

IC50 [4]: 23.1 µM
inhibition [6]: Dose-dependent effect
IC50 [7]: > 100 µM
IC50 [8]: > 100 µM
IC50 [9]: 59.4 µM
inhibition [10]: Active
IC50 (DU-145 [11]): 0.7 µM
inhibition [13]: inactive
IC50 [14]: 77.5 µM
IC50 (Angiopoietin-1 receptor): 67.8 µM
inhibition [21]: inactive
inhibition [27]: Active
IC50 (HeLa): 1.4 µM
IC50 [28]: 27.8 µM
IC50 (DU-145 [33]): 0.7 µM
Compound: O=C(Nc1ccc([N+](=O)[O-])cc1Cl)c1cc(Cl)ccc1O [NICLOSAMIDE]
viability at 10 µM (DU-145 [1]): 43.4%
Activity (DU-145 [2]): inactive
Activity (DU-145 [3]): inactive
Activity (DU-145 [5]): 13.11%
Activity (DU-145 [12]): inactive
Activity (DU-145 [15]): 2.27%
Activity (DU-145 [16]): 15.42%
Activity (DU-145 [17]): inactive
Activity (DU-145 [18]): 9.76%
viability at 1 µM (DU-145 [19]): 83.9%
Activity (DU-145 [20]): inactive
Activity (DU-145 [22]): Active
Activity (DU-145 [23]): inactive
Activity (DU-145 [24]): inactive
Activity (DU-145 [25]): 57.4%
Activity (DU-145 [26]): 7.83%
Activity (DU-145 [29]): 2.63%
Activity (DU-145 [30]): 38.72%
Activity (DU-145 [31]): 4.84%
Activity (DU-145 [32]): 75.35%
Activity (DU-145 [34]): 38.4%
